Activity calls are given as the source filed them. The calls are words filed in the database; no cut-off is given here.
Assays:
[1] = system: RAW264.7; test: Anti-inflammatory activity in mouse RAW264.7 cells assessed as inhibition of LPS-induced NO production at 1 uM preincubated for 1 hr followed by LPS addition and measured after 24 hrs by Griess reagent-based assay relative to control; format: functional
[2] = system: RAW264.7; test: Anti-inflammatory activity in mouse RAW264.7 cells assessed as inhibition of LPS-induced IL-1beta production at 1 uM preincubated for 1 hr followed by LPS addition and measured after 24 hrs by EIA relative to control; format: functional
[3] = system: RAW264.7; test: Anti-inflammatory activity in mouse RAW264.7 cells assessed as inhibition of LPS-induced PGE2 production at 1 uM preincubated for 1 hr followed by LPS addition and measured after 24 hrs by EIA relative to control; format: functional
[4] = system: RAW264.7; test: Anti-inflammatory activity in mouse RAW264.7 cells assessed as inhibition of LPS-induced TNFalpha production at 1 uM preincubated for 1 hr followed by LPS addition and measured after 24 hrs by EIA relative to control; format: functional
[5] = system: RAW264.7; test: Anti-inflammatory activity in mouse RAW264.7 cells assessed as inhibition of LPS-induced PGE2 production at 0.2 uM preincubated for 1 hr followed by LPS addition and measured after 24 hrs by EIA; format: functional, cell-based
[6] = Cytotoxicity against LPS-induced mouse RAW264.7 cells assessed as cell viability at 1 uM incubated for 24 hrs by MTT assay relative to control; format: cell-based; details: LPS-induced RAW264.7 cells, read-out: Activity
[7] = system: RAW264.7; test: Anti-inflammatory activity in mouse RAW264.7 cells assessed as inhibition of LPS-induced PGE2 production preincubated for 1 hr followed by LPS addition and measured after 24 hrs by EIA; format: functional, cell-based
[8] = system: RAW264.7; test: Anti-inflammatory activity in mouse RAW264.7 cells assessed as inhibition of LPS-induced IL-6 production at 1 uM preincubated for 1 hr followed by LPS addition and measured after 24 hrs by EIA relative to control; format: functional
[9] = target: Mitogen-activated protein kinase 14 (Mus musculus) (UniProt P47811); test: Inhibition of p38alpha MAPK in LPS-stimulated mouse RAW264.7 cells assessed as reduction in MK2 phosphorylation at 5 uM by Western blot analysis; format: cell-based; details: TDE = time-dependent effect
[10] = system: RAW264.7; test: Anti-inflammatory activity in mouse RAW264.7 cells assessed as inhibition of LPS-induced PGE2 production at 40 nM preincubated for 1 hr followed by LPS addition and measured after 24 hrs by EIA; format: functional, cell-based
[11] = target: Mitogen-activated protein kinase 14 (Mus musculus) (UniProt P47811); test: Inhibition of p38alpha MAPK in LPS-stimulated mouse RAW264.7 cells assessed as reduction in p38alpha MAPK phosphorylation at 5 uM incubated for 60 mins by Western blot analysis; format: cell-based

Sequence of Mitogen-activated protein kinase 14 (Mus musculus) (P47811 whole entry): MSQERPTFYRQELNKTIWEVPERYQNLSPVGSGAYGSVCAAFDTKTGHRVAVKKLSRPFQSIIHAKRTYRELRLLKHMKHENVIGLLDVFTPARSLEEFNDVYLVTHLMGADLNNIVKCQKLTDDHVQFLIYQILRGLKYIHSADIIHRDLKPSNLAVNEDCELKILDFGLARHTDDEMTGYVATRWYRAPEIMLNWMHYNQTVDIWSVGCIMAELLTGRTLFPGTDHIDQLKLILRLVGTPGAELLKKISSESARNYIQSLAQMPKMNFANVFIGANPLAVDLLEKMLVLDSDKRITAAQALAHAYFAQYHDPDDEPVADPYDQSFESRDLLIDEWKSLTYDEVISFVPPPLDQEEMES

IC50 [7] [nM]	inhibition [9]	inhibition [11]	Structure (SMILES)	inhibition at 1 µM [1] [%]	inhibition at 1 µM [2] [%]	inhibition at 1 µM [3] [%]	inhibition at 1 µM [4] [%]	inhibition [5]	viability at 24 h, 1 µM [6] [%]	inhibition [7]	inhibition at 1 µM [8] [%]	inhibition [10]
2380	–	–	COc1ccccc1NC(=O)c1cccc(-c2cc(=O)c3c(O)c(OC)c(OC)cc3o2)c1	7.19	-2.41	50.5	36.1	Active	99.4	Dose-dependent effect	-21.4	–
–	–	–	COc1cc2oc(-c3cccc(C(=O)Nc4ccccc4)c3)cc(=O)c2c(O)c1OC	5.15	23.3	20	45.6	–	103	–	-5.27	–
–	–	–	COc1ccc(NC(=O)c2cccc(-c3cc(=O)c4c(OC)c(OC)c(OC)cc4o3)c2)cc1	6.87	128	2.29	25.3	–	90	–	19.2	–
–	–	–	COc1ccccc1C(=O)Nc1cccc(-c2cc(=O)c3c(OC)c(OC)c(OC)cc3o2)c1	1.11	25.2	33.9	-83.9	–	99.8	–	-15.8	–
–	–	–	COc1cccc(C(=O)Nc2cccc(-c3cc(=O)c4c(O)c(OC)c(OC)cc4o3)c2)c1	6.46	35.8	35.4	33.8	–	109	–	-6.92	–
–	–	–	COc1ccc(NC(=O)c2cccc(-c3cc(=O)c4c(O)c(OC)c(OC)cc4o3)c2)cc1	-10.3	13.1	3.44	-0.1	–	92.8	–	10.2	–
–	–	–	COc1cccc(C(=O)Nc2ccc(-c3cc(=O)c4c(OC)c(OC)c(OC)cc4o3)cc2)c1	9.41	4.65	16.1	-9.17	–	111	–	-47.5	–
–	–	–	COc1cc2oc(-c3cccc(C(=O)Nc4ccccc4)c3)cc(=O)c2c(OC)c1OC	13	86.8	-10.9	24.2	–	90.6	–	12.5	–
–	–	–	COc1cccc(NC(=O)c2cccc(-c3cc(=O)c4c(O)c(OC)c(OC)cc4o3)c2)c1	10.9	18.5	35.4	5.85	–	103	–	1.96	–
–	–	–	COc1cc2oc(-c3cccc(NC(=O)c4ccccc4)c3)cc(=O)c2c(OC)c1OC	3.31	16.5	-11.3	20.9	–	95.8	–	-17	–
590	Tde	Active	COc1ccccc1C(=O)Nc1ccc(-c2cc(=O)c3c(OC)c(OC)c(OC)cc3o2)cc1	7.04	14.5	78.8	-51.3	–	108	Dose-dependent effect	-50	Active
–	–	–	COc1cc2oc(-c3cccc(NC(=O)c4ccc5c(c4)OCO5)c3)cc(=O)c2c(O)c1OC	7.46	11.6	49.3	-12.1	–	104	–	-6.67	–

— ChEMBL document CHEMBL4359854, “Repurposing mosloflavone/5,6,7-trimethoxyflavone-resveratrol hybrids: Discovery of novel p38-α MAPK inhibitors as potent interceptors of macrophage-dependent production of proinflammatory mediators” (Eur J Med Chem, 2019)
